In PubChem BioAssay (NCI):
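Each compound was tested at five concentrations against cells in 96-well plates for 48 hours. GI50 is the concentration that inhibits growth by half. TGI denotes the concentration required for complete inhibition of growth.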

Columns and labels:
Experiment in all cases: NCI tumour cell line growth inhibition, 48 h
[1] = system: 786-0 renal
[2] = system: A498 renal
[3] = system: A549 NSCLC
[4] = system: ACHN renal
[5] = system: BT-549 breast
[6] = system: CAKI-1 renal
[7] = system: COLO 205 colon
[8] = system: DU-145 prostate
[9] = system: EKVX NSCLC
[10] = system: HCC-2998 colon
[11] = system: HCT-116 colon
[12] = system: HCT-15 colon
[13] = system: HOP-62 NSCLC
[14] = system: HOP-92 NSCLC
[15] = system: HS 578T breast
[16] = system: HT29 colon
[17] = system: KM12 colon
[18] = system: M14 melanoma
[19] = system: MALME-3M melanoma
[20] = system: MDA-MB-231 breast
[21] = system: MDA-MB-435
[22] = system: MOLT-4 leukemia
[23] = system: NCI-H226 lung
[24] = system: NCI-H23 lung
[25] = system: NCI-H460 lung
[26] = system: NCI-H522 lung
[27] = system: NCI/ADR-RES ovarian
[28] = system: OVCAR-3 ovarian
[29] = system: OVCAR-4 ovarian
[30] = system: OVCAR-5 ovarian
[31] = system: PC-3 prostate
[32] = system: RXF 393 renal
[33] = system: SF-268 CNS
[34] = system: SF-295 CNS
[35] = system: SF-539 CNS
[36] = system: SK-MEL-2 melanoma
[37] = system: SK-MEL-5 melanoma
[38] = system: SK-OV-3 ovarian
[39] = system: SNB-19 CNS
[40] = system: SNB-75 CNS
[41] = system: SR leukemia
[42] = system: SW-620 colon
[43] = system: T-47D breast
[44] = system: TK-10 renal
[45] = system: U251 CNS
[46] = system: UACC-257 melanoma
[47] = system: UACC-62 melanoma
[48] = system: UO-31 renal
[49] = system: CCRF-CEM leukemia
[50] = system: HL-60(TB) leukemia
[51] = system: IGROV1 ovarian
[52] = system: K-562 leukemia
[53] = system: LOX IMVI melanoma
[54] = system: MCF7 breast
[55] = system: OVCAR-8 ovarian
[56] = system: RPMI-8226 leukemia
[57] = system: SK-MEL-28 melanoma
[58] = system: SN12C renal

Compound `Cc1c(/C=N\NC(=S)N(C)CCN(C)C(=S)N/N=C\c2c(C)n(C)n(-c3ccccc3)c2=O)c(=O)n(-c2ccccc2)n1C` has a TGI [1] of over 100 µM, a TGI [2] of over 100 µM and a TGI [3] of over 100 µM. The TGI [4] was over 100 µM, the TGI [5] was over 100 µM and the TGI [6] was over 100 µM. For the same compound, the TGI [7] was over 100 µM, the TGI [8] was over 100 µM and the TGI [9] was over 100 µM. It also gave a TGI [10] of over 100 µM, a TGI [11] of over 100 µM and a TGI [12] of over 100 µM. For the same compound, the TGI [13] was over 100 µM, the TGI [14] was over 100 µM and the TGI [15] was over 100 µM. For the same compound, the TGI [16] was over 100 µM, the TGI [17] was over 100 µM and the TGI [18] was over 100 µM. For the same compound, the TGI [19] was over 100 µM, the TGI [20] was over 100 µM and the TGI [21] was over 100 µM. For the same compound, the TGI [22] was over 100 µM, the TGI [23] was over 100 µM and the TGI [24] was over 100 µM. It also gave a TGI [25] of over 100 µM, a TGI [26] of over 100 µM and a TGI [27] of over 100 µM. The TGI [28] was over 100 µM, the TGI [29] was over 100 µM and the TGI [30] was over 100 µM. For the same compound, the TGI [31] was over 100 µM, the TGI [32] was over 100 µM and the TGI [33] was over 100 µM. It also gave a TGI [34] of over 100 µM, a TGI [35] of over 100 µM and a TGI [36] of over 100 µM. The TGI [37] was over 100 µM, the TGI [38] was over 100 µM and the TGI [39] was over 100 µM. For the same compound, the TGI [40] was over 100 µM, the TGI [41] was over 100 µM and the TGI [42] was over 100 µM. For the same compound, the TGI [43] was over 100 µM, the TGI [44] was over 100 µM and the TGI [45] was over 100 µM. For the same compound, the TGI [46] was over 100 µM, the TGI [47] was over 100 µM and the TGI [48] was over 100 µM.
Work on `COc1ccc([N+](=O)[O-])cc1[I+]c1cc([N+](=O)[O-])ccc1OC` yielded a TGI [1] of over 100 µM, a TGI [2] of over 100 µM and a TGI [3] of over 100 µM. The TGI [4] was over 100 µM, the TGI [5] was over 100 µM and the TGI [6] was over 100 µM. For the same compound, the TGI [49] was over 100 µM, the TGI [7] was over 100 µM and the TGI [8] was over 100 µM. For the same compound, the TGI [9] was over 100 µM, the TGI [10] was over 100 µM and the TGI [11] was over 100 µM. It also gave a TGI [12] of over 100 µM, a TGI [50] of 97.6 µM and a TGI [13] of over 100 µM. For the same compound, the TGI [15] was over 100 µM, the TGI [16] was over 100 µM and the TGI [51] was over 100 µM. For the same compound, the TGI [52] was over 100 µM, the TGI [17] was 94.7 µM and the TGI [53] was 73.1 µM. The TGI [18] was over 100 µM, the TGI [19] was 17.1 µM and the TGI [54] was over 100 µM. For the same compound, the TGI [20] was over 100 µM, the TGI [21] was 49.3 µM and the TGI [23] was over 100 µM. The TGI [24] was over 100 µM, the TGI [25] was 80.3 µM and the TGI [26] was over 100 µM. The TGI [27] was over 100 µM, the TGI [28] was over 100 µM and the TGI [30] was over 100 µM. For the same compound, the TGI [55] was over 100 µM, the TGI [31] was over 100 µM and the TGI [56] was over 100 µM. For the same compound, the TGI [32] was over 100 µM, the TGI [33] was over 100 µM and the TGI [34] was over 100 µM. For the same compound, the TGI [35] was over 100 µM, the TGI [36] was over 100 µM and the TGI [57] was 21.8 µM. It also gave a TGI [37] of 24.9 µM, a TGI [38] of 82.3 µM and a TGI [58] of over 100 µM. It also gave a TGI [39] of over 100 µM, a TGI [41] of 26.7 µM and a TGI [42] of over 100 µM. It also gave a TGI [43] of over 100 µM, a TGI [44] of over 100 µM and a TGI [45] of 34.2 µM. The TGI [46] was over 100 µM, the TGI [47] was 94.8 µM and the TGI [48] was over 100 µM.
`C=C1CCC2C3(C)COC(c4cccc(Cl)c4)OC3CCC2(C)C1/C=C/C1=CCOC1=O` (stereo not given) gave a GI50 [1] of over 100 µM, a TGI [1] of over 100 µM and a GI50 [2] of 2.54 µM. The TGI [2] was over 100 µM, the GI50 [3] was 3.31 µM and the TGI [3] was over 100 µM. The GI50 [4] was over 100 µM, the TGI [4] was over 100 µM and the GI50 [5] was 6.21 µM. It also gave a TGI [5] of over 100 µM, a GI50 [6] of 7.78 µM and a TGI [6] of over 100 µM. It also gave a GI50 [49] of 7.51 µM, a TGI [49] of over 100 µM and a GI50 [8] of over 100 µM. It also gave a TGI [8] of over 100 µM, a GI50 [9] of 2.55 µM and a TGI [9] of over 100 µM. The GI50 [11] was 3.08 µM, the TGI [11] was over 100 µM and the GI50 [12] was 6.75 µM. It also gave a TGI [12] of over 100 µM, a GI50 [50] of 8.27 µM and a TGI [50] of over 100 µM. It also gave a GI50 [13] of over 100 µM, a TGI [13] of over 100 µM and a GI50 [14] of over 100 µM. For the same compound, the TGI [14] was over 100 µM, the GI50 [15] was 7.42 µM and the TGI [15] was over 100 µM. The GI50 [16] was 5.32 µM, the TGI [16] was over 100 µM and the GI50 [51] was over 100 µM. The TGI [51] was over 100 µM, the GI50 [52] was 2.8 µM and the TGI [52] was over 100 µM. It also gave a GI50 [17] of 8.01 µM, a TGI [17] of over 100 µM and a GI50 [53] of 2.72 µM. The TGI [53] was over 100 µM, the GI50 [18] was over 100 µM and the TGI [18] was over 100 µM. The GI50 [19] was over 100 µM, the TGI [19] was over 100 µM and the GI50 [54] was 3.8 µM. It also gave a TGI [54] of over 100 µM, a GI50 [20] of 6.84 µM and a TGI [20] of over 100 µM. The GI50 [21] was 9.68 µM, the TGI [21] was over 100 µM and the GI50 [22] was 6.55 µM. It also gave a TGI [22] of over 100 µM, a GI50 [23] of 6.92 µM and a TGI [23] of over 100 µM. The GI50 [24] was 5.17 µM, the TGI [24] was over 100 µM and the GI50 [25] was 5.15 µM. For the same compound, the TGI [25] was over 100 µM, the GI50 [26] was 2.92 µM and the TGI [26] was over 100 µM. It also gave a GI50 [27] of 6.06 µM, a TGI [27] of over 100 µM and a GI50 [28] of 7.95 µM. The TGI [28] was over 100 µM, the GI50 [30] was over 100 µM and the TGI [30] was over 100 µM. The GI50 [55] was 6.73 µM, the TGI [55] was over 100 µM and the GI50 [31] was 3.77 µM. The TGI [31] was over 100 µM, the GI50 [56] was 2.9 µM and the TGI [56] was over 100 µM. The GI50 [32] was over 100 µM, the TGI [32] was over 100 µM and the GI50 [33] was over 100 µM. It also gave a TGI [33] of over 100 µM, a GI50 [34] of 3.59 µM and a TGI [34] of over 100 µM. The GI50 [35] was 48.5 µM, the TGI [35] was over 100 µM and the GI50 [36] was over 100 µM. For the same compound, the TGI [36] was over 100 µM, the GI50 [57] was over 100 µM and the TGI [57] was over 100 µM. The GI50 [37] was 3.39 µM, the TGI [37] was over 100 µM and the GI50 [38] was over 100 µM. The TGI [38] was over 100 µM, the GI50 [58] was over 100 µM and the TGI [58] was over 100 µM. It also gave a GI50 [39] of over 100 µM, a TGI [39] of over 100 µM and a GI50 [40] of 6.46 µM. For the same compound, the TGI [40] was over 100 µM, the GI50 [41] was 4.11 µM and the TGI [41] was over 100 µM. The GI50 [42] was 80.3 µM, the TGI [42] was over 100 µM and the GI50 [43] was 1.83 µM. For the same compound, the TGI [43] was over 100 µM, the GI50 [44] was over 100 µM and the TGI [44] was over 100 µM. For the same compound, the GI50 [45] was 7.08 µM, the TGI [45] was over 100 µM and the GI50 [46] was 3.43 µM. The TGI [46] was over 100 µM, the GI50 [47] was 6.35 µM and the TGI [47] was over 100 µM.
